The structures appear in SMILES notation.

For experiment [1], the target named is T1, HiBit-BRG1 fusion protein in stable HeLa cell line expressing HiBit-BRG1 and LgBit (Homo sapiens, UniProt P51532).
T1 construct: expressed in transfected cells
Put plainly: HiBiT-BRG1 cell-based degradation assay (Nano-Glo HiBiT, 24 h). The settings on record: HeLa HiBit-BRG1/LgBit cells; for DC50: read-out: BRMG1 HiBit Degradation IC50; for Dmax: top dose 30 μM, read-out: BRG1 HiBit Degradation Maximum (%). In outline:
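Degradation calculated from NanoBiT luminescence relative to DMSO-treated cells (high) and cells given 2 μM known BRM/BRG1 degrader (low). HeLa cells stably expressing HiBiT-BRG1 plus LgBiT were exposed to compound for 24 h before lytic HiBiT detection.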
On the technique in general: With HiBiT, luminescence reflects the tagged protein that the partner subunit can reach.

In experiment [2] the target is T2, HiBiT-BRM fusion protein in stable HeLa cell line (Homo sapiens, UniProt P51531).
T2 construct: expressed in transfected cells
T2 sequence (P51531 whole entry, the tested form may be a part): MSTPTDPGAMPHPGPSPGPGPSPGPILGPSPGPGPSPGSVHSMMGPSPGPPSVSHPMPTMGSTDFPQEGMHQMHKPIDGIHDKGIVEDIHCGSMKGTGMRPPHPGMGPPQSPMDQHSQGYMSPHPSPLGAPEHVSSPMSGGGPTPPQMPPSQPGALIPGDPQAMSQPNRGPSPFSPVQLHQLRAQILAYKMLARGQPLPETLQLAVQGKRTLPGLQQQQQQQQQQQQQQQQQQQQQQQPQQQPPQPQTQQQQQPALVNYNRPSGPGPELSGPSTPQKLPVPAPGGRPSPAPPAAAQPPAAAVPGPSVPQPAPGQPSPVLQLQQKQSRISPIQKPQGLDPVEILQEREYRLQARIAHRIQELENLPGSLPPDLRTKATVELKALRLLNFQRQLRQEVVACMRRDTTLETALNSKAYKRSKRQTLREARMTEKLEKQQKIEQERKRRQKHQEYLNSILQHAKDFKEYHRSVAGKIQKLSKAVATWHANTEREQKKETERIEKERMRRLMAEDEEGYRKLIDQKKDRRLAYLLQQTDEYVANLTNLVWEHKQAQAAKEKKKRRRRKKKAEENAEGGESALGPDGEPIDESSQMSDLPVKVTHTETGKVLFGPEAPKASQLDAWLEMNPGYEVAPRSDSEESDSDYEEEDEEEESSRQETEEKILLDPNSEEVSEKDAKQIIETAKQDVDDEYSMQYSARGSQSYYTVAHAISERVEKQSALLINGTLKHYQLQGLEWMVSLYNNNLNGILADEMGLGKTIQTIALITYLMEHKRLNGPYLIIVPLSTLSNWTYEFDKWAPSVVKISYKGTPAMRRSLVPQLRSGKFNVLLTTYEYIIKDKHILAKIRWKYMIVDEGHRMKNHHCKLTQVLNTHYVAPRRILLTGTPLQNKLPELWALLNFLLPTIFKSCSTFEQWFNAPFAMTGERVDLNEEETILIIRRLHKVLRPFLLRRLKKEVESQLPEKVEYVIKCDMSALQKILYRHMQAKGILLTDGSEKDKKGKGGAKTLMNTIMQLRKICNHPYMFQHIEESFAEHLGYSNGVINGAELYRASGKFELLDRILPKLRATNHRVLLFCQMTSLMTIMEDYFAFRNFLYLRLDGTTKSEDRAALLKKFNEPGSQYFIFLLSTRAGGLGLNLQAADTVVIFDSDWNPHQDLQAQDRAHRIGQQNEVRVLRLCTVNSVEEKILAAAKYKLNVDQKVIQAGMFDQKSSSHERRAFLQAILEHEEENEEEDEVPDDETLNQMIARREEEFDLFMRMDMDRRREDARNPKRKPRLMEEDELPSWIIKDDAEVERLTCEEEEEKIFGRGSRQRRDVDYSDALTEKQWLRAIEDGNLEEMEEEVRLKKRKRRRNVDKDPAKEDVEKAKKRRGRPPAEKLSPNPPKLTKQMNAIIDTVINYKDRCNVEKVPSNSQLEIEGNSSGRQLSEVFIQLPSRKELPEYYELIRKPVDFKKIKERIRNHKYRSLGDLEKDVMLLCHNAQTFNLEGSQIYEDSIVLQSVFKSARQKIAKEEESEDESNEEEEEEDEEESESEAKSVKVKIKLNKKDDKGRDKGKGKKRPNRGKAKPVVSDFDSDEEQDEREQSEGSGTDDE
Put plainly: HiBiT-BRM cell-based degradation assay (Nano-Glo HiBiT Lytic Detection, 24 h). Further details: DC50: scale not given here. The settings on record: HeLa HiBiT-BRM cells; for DC50: read-out: BRM HiBit Degradation IC50; for BRM HiBit Degradation Maximum (%): top dose 30 μM. The gist of the method: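 HiBiT-tagged BRM levels in a stable HeLa line are measured after one day of compound treatment (up to 30 μM final, duplicate 10-point curves) by adding LgBiT lytic reagent and reading bioluminescence; values are expressed relative to vehicle and a 2 μM degrader control.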

T1 sequence (P51532 whole entry, the tested form may be a part): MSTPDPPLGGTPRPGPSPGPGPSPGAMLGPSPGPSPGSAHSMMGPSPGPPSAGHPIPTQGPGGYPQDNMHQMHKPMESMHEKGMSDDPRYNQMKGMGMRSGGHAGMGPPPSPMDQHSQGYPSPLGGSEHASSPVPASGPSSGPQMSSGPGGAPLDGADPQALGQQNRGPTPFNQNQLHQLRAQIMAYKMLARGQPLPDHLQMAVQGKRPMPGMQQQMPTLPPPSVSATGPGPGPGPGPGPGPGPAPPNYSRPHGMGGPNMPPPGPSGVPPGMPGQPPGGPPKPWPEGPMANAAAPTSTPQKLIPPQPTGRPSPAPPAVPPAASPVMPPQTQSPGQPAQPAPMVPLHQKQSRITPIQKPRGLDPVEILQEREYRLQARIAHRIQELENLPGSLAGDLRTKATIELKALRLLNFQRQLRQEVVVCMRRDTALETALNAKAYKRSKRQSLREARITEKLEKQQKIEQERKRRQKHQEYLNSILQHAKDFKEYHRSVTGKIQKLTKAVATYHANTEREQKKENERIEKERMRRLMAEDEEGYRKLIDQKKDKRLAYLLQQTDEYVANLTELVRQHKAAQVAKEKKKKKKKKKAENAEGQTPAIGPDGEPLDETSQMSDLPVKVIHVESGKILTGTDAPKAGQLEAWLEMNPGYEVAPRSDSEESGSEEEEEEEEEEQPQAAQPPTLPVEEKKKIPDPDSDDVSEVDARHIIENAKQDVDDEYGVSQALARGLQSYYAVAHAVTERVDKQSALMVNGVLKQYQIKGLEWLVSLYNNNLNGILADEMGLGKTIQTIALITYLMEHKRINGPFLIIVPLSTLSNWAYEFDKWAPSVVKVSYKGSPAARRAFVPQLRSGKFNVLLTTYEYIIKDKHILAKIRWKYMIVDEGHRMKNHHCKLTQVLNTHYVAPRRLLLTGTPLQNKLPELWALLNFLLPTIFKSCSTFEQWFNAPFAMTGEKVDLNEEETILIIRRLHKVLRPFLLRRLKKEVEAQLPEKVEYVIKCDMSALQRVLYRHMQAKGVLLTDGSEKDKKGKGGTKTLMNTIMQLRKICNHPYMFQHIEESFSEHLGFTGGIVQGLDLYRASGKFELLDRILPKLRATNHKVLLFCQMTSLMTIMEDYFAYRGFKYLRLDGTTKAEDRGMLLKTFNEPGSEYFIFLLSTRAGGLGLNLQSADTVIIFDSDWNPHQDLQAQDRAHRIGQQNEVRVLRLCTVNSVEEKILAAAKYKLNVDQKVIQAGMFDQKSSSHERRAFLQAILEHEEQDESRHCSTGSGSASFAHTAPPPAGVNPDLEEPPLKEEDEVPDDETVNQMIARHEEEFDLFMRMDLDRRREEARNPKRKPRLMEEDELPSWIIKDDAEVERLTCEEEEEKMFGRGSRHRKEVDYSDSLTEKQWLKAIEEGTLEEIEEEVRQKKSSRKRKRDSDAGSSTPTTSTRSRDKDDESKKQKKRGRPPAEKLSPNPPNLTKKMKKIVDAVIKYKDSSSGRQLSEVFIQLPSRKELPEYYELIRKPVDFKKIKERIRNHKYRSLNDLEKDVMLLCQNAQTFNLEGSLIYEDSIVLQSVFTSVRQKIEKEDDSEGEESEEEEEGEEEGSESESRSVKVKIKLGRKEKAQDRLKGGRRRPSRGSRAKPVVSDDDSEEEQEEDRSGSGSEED

As for `Cc1ncsc1-c1ccc([C@H](C)NC(=O)[C@@H]2C[C@@H](O)CN2C(=O)[C@@H](c2cc(N3CCC4(CC3)CN(c3ccc5nnc(-c6ccccc6O)cc5c3)C4)no2)C(C)C)cc1` [Compound 67, (2S,4R)-4-hydroxy-1-((R)-2-(3-(2-(3-(2-hydroxyphenyl)cinnolin-6-yl)-2,7-diazaspiro[3.5]nonan-7-yl)isoxazol-5-yl)-3-methylbutanoyl)-N-((S)-1-(4-(4-methylthiazol-5-yl)phenyl)ethyl)pyrrolidine-2-carboxamide], in experiment [1], the DC50 was greater than 10 nM and the Dmax was greater than 75%. For the same compound, in experiment [2], the DC50 was less than 10 nM and the “BRM HiBit Degradation Maximum (%)” value is reported as “A (“A” indicates maximum degradation ≥75%)”.

With `Cc1ncsc1-c1ccc([C@H](C)NC(=O)[C@@H]2C[C@@H](O)CN2C(=O)[C@@H](c2cc(-c3cnc(N4CC(c5cc6nnc(-c7ccccc7O)cc6cc5C5CC5)C4)nc3)no2)C(C)C)cc1` [Compound 68, (2S,4R)-1-((R)-2-(3-(2-(3-(6-cyclopropyl-3-(2-hydroxyphenyl)cinnolin-7-yl)azetidin-1-yl)pyrimidin-5-yl)isoxazol-5-yl)-3-methylbutanoyl)-4-hydroxy-N-((S)-1-(4-(4-methylthiazol-5-yl)phenyl)ethyl)pyrrolidine-2-carboxamide], in experiment [1], the DC50 was greater than 10 nM and the Dmax is greater than 75%. Further, in experiment [2], the DC50 is less than 10 nM and the “BRM HiBit Degradation Maximum (%)” value is on record as “A (“A” indicates maximum degradation ≥75%)”.

`Cc1nc(N2CCC(c3ccc4nnc(-c5ccccc5O)cc4c3)CC2)ccc1-c1cc([C@H](C(=O)N2C[C@H](O)C[C@H]2C(=O)N[C@@H](C)c2ccc(-c3scnc3C)cc2)C(C)C)on1` [Compound 69, (2S,4R)-4-hydroxy-1-((R)-2-(3-(6-(4-(3-(2-hydroxyphenyl)cinnolin-6-yl)piperidin-1-yl)-2-methylpyridin-3-yl)isoxazol-5-yl)-3-methylbutanoyl)-N-((S)-1-(4-(4-methylthiazol-5-yl)phenyl)ethyl)pyrrolidine-2-carboxamide]: in experiment [1], the DC50 was greater than 100 nM and the Dmax is greater than 50%. Moreover, in experiment [2], the DC50 was less than 10 nM and the “BRM HiBit Degradation Maximum (%)” value was “A (“A” indicates maximum degradation ≥75%)”.

On to `Cc1cc(N2CCC(c3ccc4nnc(-c5ccccc5O)cc4c3)CC2)ncc1-c1cc([C@H](C(=O)N2C[C@H](O)C[C@H]2C(=O)N[C@@H](C)c2ccc(-c3scnc3C)cc2)C(C)C)on1` [Compound 70, (2S,4R)-4-hydroxy-1-((R)-2-(3-(6-(4-(3-(2-hydroxyphenyl)cinnolin-6-yl)piperidin-1-yl)-4-methylpyridin-3-yl)isoxazol-5-yl)-3-methylbutanoyl)-N-((S)-1-(4-(4-methylthiazol-5-yl)phenyl)ethyl)pyrrolidine-2-carboxamide], for which, in experiment [1], the DC50 was greater than 10 nM and the Dmax was greater than 50%. In experiment [2], the DC50 is greater than 10 nM and the “BRM HiBit Degradation Maximum (%)” value is given as “A (“A” indicates maximum degradation ≥75%)”.

With `Cc1ncsc1-c1ccc([C@H](C)NC(=O)[C@@H]2C[C@@H](O)CN2C(=O)[C@@H](c2cc(N3CCC4(CC3)CC(c3ccc5nnc(-c6ccccc6O)cc5c3)C4)no2)C(C)C)cc1` [Compound 71, (2S,4R)-4-hydroxy-1-[(2R)-2-(3-{2-[3-(2-hydroxyphenyl)cinnolin-6-yl]-7-azaspiro[3.5]nonan-7-yl}-1,2-oxazol-5-yl)-3-methylbutanoyl]-N-[(1S)-1-[4-(4-methyl-1,3-thiazol-5-yl)phenyl]ethyl]pyrrolidine-2-carboxamide], in experiment [1], the DC50 is less than 10 nM and the Dmax was greater than 75%. Also, in experiment [2], the DC50 is less than 10 nM and the “BRM HiBit Degradation Maximum (%)” value is “A (“A” indicates maximum degradation ≥75%)”.

Consider `Cc1ncsc1-c1ccc([C@H](C)NC(=O)[C@@H]2C[C@@H](O)CN2C(=O)[C@@H](c2cc(N3CCC4(CCN(c5ccc6nnc(-c7ccccc7O)cc6c5)C4)CC3)no2)C(C)C)cc1` [Compound 72, (2S,4R)-4-hydroxy-1-((R)-2-(3-(2-(3-(2-hydroxyphenyl)cinnolin-6-yl)-2,8-diazaspiro [4.5]decan-8-yl)isoxazol-5-yl)-3-methylbutanoyl)-N-((S)-1-(4-(4-methylthiazol-5-yl)phenyl)ethyl)pyrrolidine-2-carboxamide], for which, in experiment [1], the DC50 is greater than 10 nM and the Dmax is greater than 75%. Further, in experiment [2], the DC50 was less than 10 nM and the “BRM HiBit Degradation Maximum (%)” value is listed as “A (“A” indicates maximum degradation ≥75%)”.

For `Cc1ncsc1-c1ccc([C@H](C)NC(=O)[C@@H]2C[C@@H](O)CN2C(=O)[C@@H](c2cc(N3CC[C@@H](c4ccc5nnc(-c6ccccc6O)cc5c4)C3)no2)C(C)C)cc1` [Compound 73, (2S,4R)-4-hydroxy-1-((R)-2-(3-((S)-3-(3-(2-hydroxyphenyl)cinnolin-6-yl)pyrrolidin-1-yl)isoxazol-5-yl)-3-methylbutanoyl)-N-((S)-1-(4-(4-methylthiazol-5-yl)phenyl)ethyl)pyrrolidine-2-carboxamide], in experiment [1], the Dmax is less than 50%. Besides, in experiment [2], the DC50 was less than 10 nM and the “BRM HiBit Degradation Maximum (%)” value is on record as “A (“A” indicates maximum degradation ≥75%)”.

Turning to `Cc1ncsc1-c1ccc([C@H](C)NC(=O)[C@@H]2C[C@@H](O)CN2C(=O)[C@@H](c2cc(N3CCC(c4ccc5cc(-c6ccccc6O)nnc5c4)CC3)no2)C(C)C)cc1` [Compound 74, (2S,4R)-4-hydroxy-1-((R)-2-(3-(4-(3-(2-hydroxyphenyl)cinnolin-7-yl)piperidin-1-yl)isoxazol-5-yl)-3-methylbutanoyl)-N-((S)-1-(4-(4-methylthiazol-5-yl)phenyl)ethyl)pyrrolidine-2-carboxamide], the Dmax in experiment [1] was less than 50%. In experiment [2], the DC50 was less than 10 nM and the “BRM HiBit Degradation Maximum (%)” value is reported as “A (“A” indicates maximum degradation ≥75%)”.

For the compound `Cc1ncsc1-c1ccc([C@H](C)NC(=O)[C@@H]2C[C@@H](O)CN2C(=O)[C@@H](c2cc(N3CCC4(CC[C@H](c5ccc6nnc(-c7ccccc7O)cc6c5)C4)CC3)no2)C(C)C)cc1` [Compound 75, (2S,4R)-4-hydroxy-1-((R)-2-(3-((S)-2-(3-(2-hydroxyphenyl)cinnolin-6-yl)-8-azaspiro[4.5]decan-8-yl)isoxazol-5-yl)-3-methylbutanoyl)-N-((S)-1-(4-(4-methylthiazol-5-yl)phenyl)ethyl)pyrrolidine-2-carboxamide], in experiment [1], the DC50 is greater than 10 nM and the Dmax was greater than 75%. For the same compound, in experiment [2], the DC50 was less than 10 nM and the “BRM HiBit Degradation Maximum (%)” value was “A (“A” indicates maximum degradation ≥75%)”.

Turning to `Cc1ncsc1-c1ccc([C@H](C)NC(=O)[C@@H]2C[C@@H](O)CN2C(=O)[C@@H](c2cc(N3CCC4(CC[C@@H](c5ccc6nnc(-c7ccccc7O)cc6c5)C4)CC3)no2)C(C)C)cc1` [Compound 76, (2S,4R)-4-hydroxy-1-((R)-2-(3-((R)-2-(3-(2-hydroxyphenyl)cinnolin-6-yl)-8-azaspiro[4.5]decan-8-yl)isoxazol-5-yl)-3-methylbutanoyl)-N-((S)-1-(4-(4-methylthiazol-5-yl)phenyl)ethyl)pyrrolidine-2-carboxamide], in experiment [1], the DC50 is greater than 10 nM and the Dmax was greater than 75%. In experiment [2], the DC50 was less than 10 nM and the “BRM HiBit Degradation Maximum (%)” value was “A (“A” indicates maximum degradation ≥75%)”.

With `Cc1ncsc1-c1ccc([C@H](C)NC(=O)[C@@H]2C[C@@H](O)CN2C(=O)[C@@H](c2cc(-c3cnc(N4CC(c5cc(C6CC6)c6cc(-c7ccccc7O)nnc6c5)C4)nc3)no2)C(C)C)cc1` [Compound 77, (2S,4R)-1-((R)-2-(3-(2-(3-(5-cyclopropyl-3-(2-hydroxyphenyl)cinnolin-7-yl)azetidin-1-yl)pyrimidin-5-yl)isoxazol-5-yl)-3-methylbutanoyl)-4-hydroxy-N-((S)-1-(4-(4-methylthiazol-5-yl)phenyl)ethyl)pyrrolidine-2-carboxamide], in experiment [1], the Dmax was less than 50%. In experiment [2], the DC50 is less than 10 nM and the “BRM HiBit Degradation Maximum (%)” value is listed as “A (“A” indicates maximum degradation ≥75%)”.

Consider `Cc1ncsc1-c1ccc([C@H](C)NC(=O)[C@@H]2C[C@@H](O)CN2C(=O)[C@@H](c2cc(N3CCC4(CC3)CC(Oc3ccc5cc(-c6ccccc6O)nnc5c3)C4)no2)C(C)C)cc1` [Compound 78, (2S,4R)-4-hydroxy-1-((R)-2-(3-(2-((3-(2-hydroxyphenyl)cinnolin-7-yl)oxy)-7-azaspiro[3.5]nonan-7-yl)isoxazol-5-yl)-3-methylbutanoyl)-N-((S)-1-(4-(4-methylthiazol-5-yl)phenyl)ethyl)pyrrolidine-2-carboxamide], for which the Dmax in experiment [1] is less than 50%. Also, in experiment [2], the DC50 was greater than 10 nM and the “BRM HiBit Degradation Maximum (%)” value is listed as “A (“A” indicates maximum degradation ≥75%)”.

In the case of `Cc1ncsc1-c1ccc([C@H](C)NC(=O)[C@@H]2C[C@@H](O)CN2C(=O)[C@@H](c2cc(-c3cnc(N4CC(c5cc6cc(-c7ccccc7O)nnc6cc5C5CC5)C4)nc3)no2)C(C)C)cc1` [Compound 79, (2S,4R)-1-((R)-2-(3-(2-(3-(7-cyclopropyl-3-(2-hydroxyphenyl)cinnolin-6-yl)azetidin-1-yl)pyrimidin-5-yl)isoxazol-5-yl)-3-methylbutanoyl)-4-hydroxy-N-((S)-1-(4-(4-methylthiazol-5-yl)phenyl)ethyl)pyrrolidine-2-carboxamide], in experiment [1], the DC50 is less than 10 nM and the Dmax was greater than 75%. In addition, in experiment [2], the DC50 was less than 10 nM and the “BRM HiBit Degradation Maximum (%)” value was “A (“A” indicates maximum degradation ≥75%)”.

Source of the values: US20260193264A1, “BENZOYPARAZINE PYRAZINES AND THEIR USES” (FOGHORN THERAPEUTICS INC., priority 2022, published 2026).
